Results: a compilation of properties of binary mixtures (doi:10.1016/j.jct.2008.09.001)

Assay: xn = mol fraction of the nth substance listed
Conditions: 101.3 kPa

SMILES: CCCC[n+]1ccccc1.F[B-](F)(F)F + O
- viscosity (283.15 K, x2 = 0): 464 mPa·s
- viscosity (283.15 K, x2 = 0.11): 211 mPa·s
- viscosity (283.15 K, x2 = 0.391): 44.9 mPa·s
- viscosity (283.15 K, x2 = 0.414): 41.27 mPa·s
- viscosity (283.15 K, x2 = 0.549): 22.77 mPa·s
- viscosity (283.15 K, x2 = 0.856): 5.53 mPa·s
- viscosity (288.15 K, x2 = 0): 313 mPa·s
- viscosity (288.15 K, x2 = 0.263): 60.2 mPa·s
- viscosity (288.15 K, x2 = 0.414): 32.98 mPa·s
- viscosity (288.15 K, x2 = 0.549): 18.49 mPa·s
- viscosity (288.15 K, x2 = 0.856): 4.58 mPa·s
- viscosity (293.15 K, x2 = 0): 223 mPa·s
- viscosity (293.15 K, x2 = 0.11): 115.6 mPa·s
- viscosity (293.15 K, x2 = 0.263): 47.4 mPa·s
- viscosity (293.15 K, x2 = 0.391): 29.05 mPa·s
- viscosity (293.15 K, x2 = 0.414): 26.81 mPa·s
- viscosity (293.15 K, x2 = 0.549): 15.37 mPa·s
- viscosity (293.15 K, x2 = 0.637): 10.82 mPa·s
- viscosity (293.15 K, x2 = 0.724): 7.61 mPa·s
- viscosity (293.15 K, x2 = 0.856): 3.88 mPa·s
- viscosity (298.15 K, x2 = 0): 163.3 mPa·s
- viscosity (298.15 K, x2 = 0.11): 88.1 mPa·s
- viscosity (298.15 K, x2 = 0.263): 38.1 mPa·s
- viscosity (298.15 K, x2 = 0.391): 23.97 mPa·s
- viscosity (298.15 K, x2 = 0.414): 22.21 mPa·s
- viscosity (298.15 K, x2 = 0.549): 12.99 mPa·s
- viscosity (298.15 K, x2 = 0.637): 9.16 mPa·s
- viscosity (298.15 K, x2 = 0.856): 3.36 mPa·s
- viscosity (303.15 K, x2 = 0): 123 mPa·s
- viscosity (303.15 K, x2 = 0.263): 31.12 mPa·s
- viscosity (303.15 K, x2 = 0.391): 20.01 mPa·s
- viscosity (303.15 K, x2 = 0.414): 18.63 mPa·s
- viscosity (303.15 K, x2 = 0.637): 8 mPa·s
- viscosity (303.15 K, x2 = 0.724): 5.65 mPa·s
- viscosity (303.15 K, x2 = 0.856): 2.94 mPa·s
- viscosity (308.15 K, x2 = 0): 94.2 mPa·s
- viscosity (308.15 K, x2 = 0.11): 53.4 mPa·s
- viscosity (308.15 K, x2 = 0.263): 25.87 mPa·s
- viscosity (308.15 K, x2 = 0.391): 16.93 mPa·s
- viscosity (308.15 K, x2 = 0.414): 15.81 mPa·s
- viscosity (308.15 K, x2 = 0.549): 9.61 mPa·s
- viscosity (308.15 K, x2 = 0.637): 7.01 mPa·s
- viscosity (308.15 K, x2 = 0.724): 4.92 mPa·s
- viscosity (308.15 K, x2 = 0.856): 2.6 mPa·s
- viscosity (313.15 K, x2 = 0): 70.3 mPa·s
- viscosity (313.15 K, x2 = 0.11): 43.2 mPa·s
- viscosity (313.15 K, x2 = 0.263): 21.69 mPa·s
- viscosity (313.15 K, x2 = 0.391): 14.51 mPa·s
- viscosity (313.15 K, x2 = 0.414): 13.58 mPa·s
- viscosity (313.15 K, x2 = 0.637): 6.13 mPa·s
- viscosity (313.15 K, x2 = 0.856): 2.32 mPa·s
- viscosity (318.15 K, x2 = 0): 55.8 mPa·s
- viscosity (318.15 K, x2 = 0.11): 35.5 mPa·s
- viscosity (318.15 K, x2 = 0.263): 18.48 mPa·s
- viscosity (318.15 K, x2 = 0.391): 12.53 mPa·s
- viscosity (318.15 K, x2 = 0.414): 11.77 mPa·s
- viscosity (318.15 K, x2 = 0.549): 7.41 mPa·s
- viscosity (318.15 K, x2 = 0.637): 5.43 mPa·s
- viscosity (318.15 K, x2 = 0.724): 3.85 mPa·s
- viscosity (318.15 K, x2 = 0.856): 2.09 mPa·s
- viscosity (323.15 K, x2 = 0): 45.1 mPa·s
- viscosity (323.15 K, x2 = 0.11): 29.49 mPa·s
- viscosity (323.15 K, x2 = 0.263): 15.87 mPa·s
- viscosity (323.15 K, x2 = 0.391): 10.93 mPa·s
- viscosity (323.15 K, x2 = 0.414): 10.22 mPa·s
- viscosity (323.15 K, x2 = 0.549): 6.57 mPa·s
- viscosity (323.15 K, x2 = 0.637): 4.78 mPa·s
- viscosity (323.15 K, x2 = 0.724): 3.46 mPa·s
- viscosity (323.15 K, x2 = 0.856): 1.9 mPa·s
- viscosity (328.15 K, x2 = 0): 37.1 mPa·s
- viscosity (328.15 K, x2 = 0.263): 13.77 mPa·s
- viscosity (328.15 K, x2 = 0.391): 9.58 mPa·s
- viscosity (328.15 K, x2 = 0.414): 9.06 mPa·s
- viscosity (328.15 K, x2 = 0.549): 5.86 mPa·s
- viscosity (328.15 K, x2 = 0.637): 4.29 mPa·s
- viscosity (328.15 K, x2 = 0.856): 1.74 mPa·s
- viscosity (333.15 K, x2 = 0): 30.9 mPa·s
- viscosity (333.15 K, x2 = 0.11): 21.18 mPa·s
- viscosity (333.15 K, x2 = 0.263): 12.04 mPa·s
- viscosity (333.15 K, x2 = 0.391): 8.6 mPa·s
- viscosity (333.15 K, x2 = 0.549): 5.19 mPa·s
- viscosity (333.15 K, x2 = 0.637): 3.87 mPa·s
- viscosity (333.15 K, x2 = 0.724): 2.82 mPa·s
- viscosity (333.15 K, x2 = 0.856): 1.61 mPa·s
- viscosity (338.15 K, x2 = 0): 26.01 mPa·s
- viscosity (338.15 K, x2 = 0.11): 18.21 mPa·s
- viscosity (338.15 K, x2 = 0.263): 10.57 mPa·s
- viscosity (338.15 K, x2 = 0.391): 7.71 mPa·s
- viscosity (338.15 K, x2 = 0.414): 7.17 mPa·s
- viscosity (338.15 K, x2 = 0.549): 4.68 mPa·s
- viscosity (338.15 K, x2 = 0.724): 2.58 mPa·s
- viscosity (338.15 K, x2 = 0.856): 1.5 mPa·s
- viscosity (343.15 K, x2 = 0): 22.17 mPa·s
- viscosity (343.15 K, x2 = 0.414): 6.37 mPa·s
- viscosity (343.15 K, x2 = 0.549): 4.24 mPa·s
- viscosity (343.15 K, x2 = 0.637): 3.22 mPa·s
- viscosity (343.15 K, x2 = 0.724): 2.37 mPa·s
- viscosity (343.15 K, x2 = 0.856): 1.4 mPa·s
- viscosity (353.15 K, x2 = 0): 15.84 mPa·s
